In brackets after ≈: the same amount, converted by molar mass. Like-named read-outs stand apart in the source and are kept apart here. A value given as a limit tells only on which side of the number the result lay.

For orientation: IC50 means the concentration that inhibits the measured activity by half. Broadly, the MBC is the smallest concentration meeting the test's criterion for killing. High values mean less potent killing, low ones more potent killing. By MIC is commonly meant the lowest concentration found to suppress growth. As usually defined, the EC50 is the midpoint of the concentration-response curve.

Series [1] deals with healthy/non-parasitized erythrocytes. Kind of series: Hemotoxicity in vitro (hemolysis assay). Format: cell-based, human. Conditions: at ≤10 μM.
Procedure: In an embodiment, the evaluation of hemotoxicity in vitro was performed as follows. The in vitro hemolysis assay evaluates the release of hemoglobin in the medium (as an indicator of lysis of erythrocytes) after exposure to the test compounds.
In the present disclosure, the evaluation of hemotoxicity in vitro was performed as follows. In a 96-flat bottom plate 3% HTC, 20 μL of 20% Triton X-100, and 20 μL of PBS or RPMIc in 2% DMSO was added. Compounds were tested in a 1:4 serial dilution in concentrations ranging from 10 μM to 0.04 μM. After the incubation of 60 minutes, the plate was centrifuged at 2000 rpm for 5 minutes. 100 mL of Supernatant was transferred to a flat bottom plate. The absorbance reading was made at 450 nm in a Mode (Triad, Dynex Technologies). Two independent tests were carried out in triplicate. The results are presented in the form of a percentage of hemolysis-% hemolysis, obtained by the following formula; % Hemolysis=ABS (sample)/abs (C+)×100. Whereas C+ is a Triton x-100 to 20% solution RPMIc.
The subject of series [2] is V79 cells. The conditions noted are these: for DL50: 24 h; for SI (Selectivity Index): calculated by LD50/IC50 (V79 / P. falciparum 3D7). The protocol: In the present disclosure, the cytotoxicity in vitro against mammalian cell was carried out as follows. Cytotoxicity was assessed on the mammalian cell line V79 (Chinese hamster lung), using an MTT based assay, as previously described [38B]. Tests were conducted in triplicate for each compound, at a range of concentrations (800 μM to 0.0512 μM), and with culture media containing 0.5% DMSO (no drug control); incubation time 24 h. Absorbance was read at 570 nm on a multi-mode microplate reader to produce a log dose-dependence curve. The LD50 value for each compound was estimated by non-linear interpolation of the dose-dependence curve (GraphPad Software).

Series [3] relates to hemozoin (β-hematin). Kind of series: Inhibition of polymerization of hemozoin (β-hematin) in vitro. Conditions: 12 and 16 at 48.0, 24.0, 12.0 μM; 31 at 96.0, 48.0, 24.0 μM; 24 h.
The subject of series [4] is Plasmodium falciparum 3D7 strain. In words: In vitro susceptibility assay of P. falciparum, SYBR Green I. The series is classed as cell-based. The conditions noted are these: for antimalarial activity (in words): P. falciparum 3D7; for IC50: Plasmodium falciparum. The protocol:
The principle of the in vitro susceptibility test to malaria is to assess the degree of development of parasites P. falciparum in the presence of different concentrations of the compounds.
In the present disclosure, the antimalarial activity was also evaluated. Each compound was lyophilized and solubilized in DMSO (Sigma-Aldrich) to obtain a final concentration of 5 mM. Some intermediate dilutions were made to achieve the final concentration of 10 μM in the first well of the plate.
In an embodiment, the culture of P. falciparum was carried out as follows. […] Parasites were cultivated at 5% hematocrit, 37° C. and atmosphere with 5% of CO2, human serum was replaced with 0.5% AlbuMAXII (Invitrogen™) in the culture medium. Synchronized cultures were obtained by treatments with a 5% (m/v) solution of D-sorbitol (Sigma-Aldrich).
In the present disclosure, the in vitro susceptibility assay of P. falciparum using SYBR Green I was carried out as follows. […] Briefly, early ring stage parasites (>80% of rings, 3% haematocrit and 1% parasitaemia) were tested in duplicate in a 96-well plate and incubated with the compounds for 48 h (37° C., 5% CO2), parasite growth was assessed with SYBR Green I (Thermo Fisher Scientific). Each compound was tested in concentrations ranging from 10 to 0.001 μM. Fluorescence intensity was measured with a microplate reader with excitation and emission wavelengths of 485 and 535 nm, respectively, and analysed by nonlinear regression using GraphPad Prism 5 demo version to determine

Series [5] relates to Staphylococcus aureus ATCC 29213. Kind of series: MIC/MBC broth dilution (CLSI), S. aureus reference strain. Format: cell-based. Conditions: for MBC / MIC: Staphylococcus aureus, ATCC29213. The text has this:
(§1) In the present disclosure, two Gram-positive—Staphylococcus aureus ATCC 29213 and Enterococcus faecalis ATCC […] and two Gram-negative—Escherichia coli ATCC 25922 and Pseudomonas aeruginosa ATCC 27853—reference bacterial strains were used. When it was possible to determine a minimal inhibitory concentration (MIC) value for these strains, clinically relevant strains were also used. These included methicillin-resistant S. uareus (MRSA) 66/1, isolated from public buses, as well as a isolate sensitive to the most commonly used antibiotic families (S. aureus 40/61/24) and two vancomycin-resistant Enterococcus (VRE) strains isolated from river water, E. faecalis B3/101 and E. faecalis A5/102, which is sensitive to ampicillin. Frozen stocks of all strains were grown on Mueller-Hinton agar (MH-BioKar Diagnostics, Allone, France) at 37° C. for 24 h. All bacterial strains were sub-cultured on MH agar and incubated overnight at 37° C. before each assay, in order to obtain fresh cultures.
(§2) An initial screening of the antibacterial activity of the compounds was performed by the Kirby-Bauer disk diffusion method, as recommended by the Clinical and Laboratory Standards institute (CLSI). Briefly, sterile 6 mm blank paper disks (Oxoid, Basingstoke, England) impregnated with 15 μg of each compound were placed on inoculated MH agar plates. A blank disk with DMSO was used as a negative control. MH inoculated plates were incubated for 18-20 hours at 37° C. At the end of the incubation, the inhibition halos where measured. The minimal inhibitory concentration (MIC) was used to determine the antibacterial activity of each compound, in accordance with the recommendations of the CLSI. Two-fold serial dilutions of the compounds were prepared in Mueller-Hinton Broth 2 (MHB2-Sigma-Aldrich, St. Louis, Mo., USA) within the concentration range of 0.062-64 μg/mL. Cefotaxime (CTX) ranging between 0.031-16 μg/mL was used as a control. Sterility and growth controls were included in each assay. Purity check and colony counts of the inoculum suspensions were also performed in order to ensure that the final inoculum density closely approximates the intended number ([…]). The MIC was determined as the lowest concentration at which no visible growth was observed. The minimal bactericidal concentration (MBC) was assessed by spreading 10 μL of culture collected from wells showing no visible growth on MH agar plates. The MBC was determined as the lowest concentration at which no colonies grew after 16-18 hours incubation at 37° C. These assays were performed in duplicate.
A general note: Dilution methods test growth across graded concentrations, often in twofold steps.

In series [6] the test system is S. aureus 66/1 (MRSA). Kind of series: MIC/MBC broth dilution (CLSI), MRSA. The series is classed as cell-based. The conditions noted are these: Staphylococcus aureus.
Excerpt: as §1, §2

Series [7] deals with E. faecalis A5/102 (VRE). Kind of series: MIC/MBC broth dilution (CLSI), VRE sensitive to ampicillin. Conditions: Enterococcus faecalis. Format: cell-based.
Excerpt: as §1, §2

The test system of series [8] is S. aureus 40/61/24. Kind of series: MIC/MBC broth dilution (CLSI), sensitive clinical isolate. The series is classed as cell-based. Conditions: Staphylococcus aureus; for MIC: 40/61/24; for MBC: S. aureus 40/61/24.
Excerpt: as §1, §2

For series [9], the system named is E. faecalis ATCC 29212. In words: MIC/MBC broth dilution (CLSI), E. faecalis reference strain. The series is classed as cell-based, Enterococcus faecalis. Conditions: for MBC / MIC: Enterococcus faecalis.
Excerpt: as §1, §2

In series [10] the test system is E. faecalis B3/101 (VRE). Kind of series: MIC/MBC broth dilution (CLSI), VRE. The series is classed as cell-based. The conditions noted are these: Enterococcus faecalis.
Excerpt: as §1, §2

For series [11], the system named is hemozoin. The conditions noted are these: trophozoite stage; cited from earlier work.
Series [12] concerns P. falciparum 3D7 strain. Conditions: cited from earlier work.
Series [13] has as its system Staphylococcus aureus. Conditions: cited from earlier work.
Series [14] has as its system Enterococcus faecalis. Conditions: cited from earlier work.
Series [15] concerns Vibrio harvevi. Conditions: cited from earlier work.
Setting [16] is: P. falciparum (3D7), 48 h, read-out: IC50.
Setting [17] is: S. aureus ATCC 29213, read-out: MIC.

For `CC(C)[C@@H]1NC(=O)[C@@H](Cc2c[nH]c3ccccc23)n2c1nc1ccccc1c2=O` [Compound 12, fiscalin B], the “hemolytic activity (in words)” value in series [1] is on record as “no hemolytic activity”. Further, the DL50 in [2] (Chinese hamster) came out at 1.91 ± 0.44 µM. In addition, the “SI (Selectivity Index)” value in series [2] is given as 19. In addition, in [3], the “inhibition of the polymerization of β-hematin in vitro (in words)” value (“inhibition of the polymerization … (in words)” below) was “did not show to inhibit”. Also, in [4], the “antimalarial activity (in words)” value is given as “highest antimalarial activity”. For the same compound, the 50% inhibitory concentration (IC50) in series [4] (setting [16]) was 100 ± 20 nM.

As to `CC(C)C[C@@H]1NC(=O)[C@@H](Cc2c[nH]c3ccccc23)n2c1nc1ccccc1c2=O` [Compound 16], the “hemolytic activity (in words)” value in series [1] is given as “no hemolytic activity”. This compound displayed a DL50 in series [2] (Chinese hamster) of 1.78 ± 0.47 µM. For the same compound, the “SI (Selectivity Index)” value in [2] is recorded as 34. Further, in series [3], the “inhibition of the polymerization … (in words)” value is “did not show to inhibit”. Further, the “antimalarial activity (in words)” value in series [4] was “highest antimalarial activity”. Moreover, in series [4] (setting [16]), the half-maximal inhibitory concentration (IC50) was 50 ± 20 nM.

Consider `CC(C)C[C@@H]1NC(=O)[C@@H](Cc2c[nH]c3ccccc23)n2c1nc1ccc(Cl)cc1c2=O` [Compound 28], for which the “antibacterial (inhibitory) effect (in words)” value in series [5] (S. aureus ATCC 29213) and in [9] was “inhibitory effect” in each case. In addition, the minimum bactericidal concentration (MBC) in series [5] (S. aureus ATCC 29213), in series [6], in series [7], in [8], in [9] (ATCC29212) and in [10] was more than 64 µg/mL throughout. Also, the minimum inhibitory concentration (MIC) in series [5] (setting [17]) was 32 µg/mL (≈ 73.6 µM); in [6], more than 64 µg/mL; in series [7] it was 64 µg/mL (≈ 147 µM); in [8] it was 64 µg/mL (≈ 147 µM); in series [9] (ATCC29212) it was 32 µg/mL (≈ 73.6 µM); in series [10] it was more than 64 µg/mL.

`CC[C@H](C)[C@@H]1NC(=O)[C@@H](Cc2c[nH]c3ccccc23)n2c1nc1ccc(Cl)cc1c2=O` [Compound 29, (1S,4R)-4-((1H-indol-3-yl)methyl)-1-((S)-sec-butyl)-8-chloro-1,2-dihydro-6H-pyrazino[2,1-b]quinazoline-3,6(4H)-dione]: the “antibacterial (inhibitory) effect (in words)” value in series [5] (S. aureus ATCC 29213) and in series [9] was “inhibitory effect” throughout. Further, the minimum inhibitory concentration (MIC) in series [5] is 16 µg/mL (≈ 36.8 µM); in series [6] it was more than 64 µg/mL; in series [7], 64 µg/mL (≈ 147 µM); in series [8] it was 64 µg/mL (≈ 147 µM); in series [9] (ATCC29212), 32 µg/mL (≈ 73.6 µM); in [10] it was more than 64 µg/mL. Moreover, the minimal bactericidal concentration (MBC) in series [5] (S. aureus ATCC 29213), in series [6], in series [7], in series [8], in [9] (ATCC29212) and in [10] was more than 64 µg/mL each time.

For the compound `CC(C)C[C@@H]1NC(=O)[C@@H](Cc2c[nH]c3ccccc23)n2c1nc1c(Cl)cc(Cl)cc1c2=O` [Compound 31, (1S, 4R)-4-((1H-indol-3-yl)methyl)-8,10-dichloro-1-isobutyl-1,2-dihydro-6H-pyrazino[2,1-b]quinazoline-3,6(4H)-dione], the “antibacterial (inhibitory) effect (in words)” value in [5] (S. aureus ATCC 29213) is given as “inhibitory effect”. Moreover, the MBC in [5] (S. aureus ATCC 29213), in [6], in [8] and in series [9] (ATCC29212) was more than 64 µg/mL each time. The MIC in series [5] (setting [17]) was 4 µg/mL (≈ 8.52 µM); in series [6], 8 µg/mL (≈ 17 µM); in series [8], 8 µg/mL (≈ 17 µM); in series [9] (ATCC29212, read-out: MIC), more than 64 µg/mL. The “hemolytic activity (in words)” value in series [1] is given as “no hemolytic activity”. The same compound gave a DL50 in series [2] (Mammalian cells (V79), MTT) of 14.00 ± 1.41 µM. Further, the “inhibition of the polymerization … (in words)” value in series [3] is on record as “did not show to inhibit”. Moreover, the “antimalarial activity (in words)” value in series [4] is on record as “highest antimalarial activity”. In series [4] (3D7, 48 h), this compound came in with a 50% inhibitory concentration (IC50) of 200 nM.

For the compound `O=C(C[C@H]1NCCC[C@@H]1O)Cn1cnc2ccccc2c1=O` [Febrifugine (9, FF), febrifugine], the “inhibition of the formation of hemozoin (in words)” value in series [11] was “significantly inhibits”.

On to `Clc1ccc2nccc(N3CCC(CN4CCC(c5c[nH]c6ccccc56)CC4)CC3)c2c1` [TCMDC-134281 (8), TCMDC-134281], for which the EC50 in [12] was 34 nM.

Turning to `CC(C)[C@@H]1NC(=O)[C@@H](C[C@]2(O)c3ccccc3N3C(=O)[C@@H](C)N[C@H]32)n2c1nc1ccccc1c2=O` [neofiscalin A (2), neofiscalin A], the MIC in series [13] and in [14] was 8 µg/mL (≈ 16.9 µM) each time.

With glyantypine [glyantypine (1)], the minimal inhibitory concentration (MIC) in [15] is 32 µg/mL.

These data come from patent publication US20220274987A1, “PYRAZINO [1,2-B]QUINAZOLINE-3,6-DIONES DERIVATIVES, THEIR PRODUCTION AND USES THEREOF” (CIIMAR -CENTRO INTERDISCIPLINAR DE INVESTIGAÇÃO MARINHA E …, priority 2019, published 2022).
